Test results taken from US6984643B2, “2,5-substituted pyrimidine derivatives-CCR-3 receptor antagonists” (Roche Palo Alto LLC, priority 2002, dated 2006).
Read-outs that look alike come from different tables or passages of the source.

Target: T1, CCR-3 receptor (Homo sapiens, UniProt P51677)
T1 construct: expressed in transfected cells; host or cells: L1.2 (murine pre-B lymphoma line)
T1 sequence (P51677 1-355): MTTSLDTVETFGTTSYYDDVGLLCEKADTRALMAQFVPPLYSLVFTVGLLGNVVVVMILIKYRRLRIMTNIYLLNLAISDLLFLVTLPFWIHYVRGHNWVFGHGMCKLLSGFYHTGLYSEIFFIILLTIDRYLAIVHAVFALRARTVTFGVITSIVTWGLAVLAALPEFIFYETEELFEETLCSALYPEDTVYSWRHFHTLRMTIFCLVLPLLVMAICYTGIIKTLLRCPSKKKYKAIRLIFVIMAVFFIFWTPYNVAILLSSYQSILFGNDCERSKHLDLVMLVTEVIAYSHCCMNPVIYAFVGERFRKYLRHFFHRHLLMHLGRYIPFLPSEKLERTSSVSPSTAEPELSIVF
Test: CCR-3 Receptor Binding Assay in vitro (inhibition of 125I eotaxin binding to CCR-3 L1.2 transfectant cells)
Protocol: The CCR-3 antagonistic activity of the compounds of the invention was determined by their ability to inhibit the binding of ^125I eotaxin to CCR-3 L1.2 transfectant cells (see Ponath, P. D. et al., J. Exp. Med., Vol. 183, 2437-2448, (1996)).
The assay was performed in Costar 96-well polypropylene round bottom plates. Test compounds were dissolved in DMSO and then diluted with binding buffer (50 mM HEPES, 1 mM CaCl2, 5 mM MgCl2, 0.5% bovine serum albumin (BSA), 0.02% sodium azide, pH 7.24) such that the final DMSO concentration was 2%. Each well was filled with 25 μl of the test solution or only buffer with DMSO (control samples) followed by the addition of 25 μl of ^125I-eotaxin (100 pmol) (NEX314, New England Nuclear, Boston, Mass.) and 1.5×10^5 of the CCR-3 L1.2 transfected cells in 25 μl binding buffer. The final reaction volume was 75 μl.
After incubating the reaction mixture for 1 h at room temperature, the reaction was terminated by filtering the reaction mixture through polyethylenimine treated Packard Unifilter GF/C filter plate (Packard, Chicago, Ill.). The filters were washed four times with ice cold wash buffer containing 10 mM HEPES and 0.5M sodium chloride (pH 7.2) and dried at 65° C. for approximately 10 min. 25 μl/well of Microscint-20™ scintillation fluid (Packard) was added and the radioactivity retained on the filters was determined by using the Packard TopCount™.
The IC50 value (concentration of test compound required to reduce ^125I-eotaxin binding to the CCR-3 L 1.2 transfected cells by 50%) for compounds in Table I of the invention was between 0.02 and 200 μM, preferably between 0.02 and 10 μM.

[1] = concentration reducing 125I-eotaxin binding to CCR-3 L1.2 transfected cells by 50%, read-out: CCR-3 IC50

Row | Compound | IC50 [1] | IC50 (stated in text for the compound where Z is —C(═O)—, assay not given, read-out: IC50)
1 | COc1ccc(-c2cnc(CCC(=O)NCC3CCCN(Cc4cccc(Cl)c4Cl)C3)nc2)cc1 (centres unmarked) [Compound 23, N-[1-(2,3-dichloro-benzyl)-piperidin-3-ylmethyl]-3-[5-(4-methoxy-phenyl)-pyrimidin-2-yl]-propionamide] | 403 nM | –
2 | COc1ccc(-c2cnc(OCC(=O)NCC3CCCN(Cc4cccc(Cl)c4Cl)C3)nc2)cc1 (centres unmarked) [Compound 46, N-[1-(2,3-dichloro-benzyl)-piperidin-3-ylmethyl]-2-[5-(4-methoxy-phenyl)-pyrimidin-2-yloxy]-acetamide] | 2110 nM | –
3 | COc1ccc(-c2cnc(SCC(=O)NCC3CCCN(Cc4ccccc4)C3)nc2)cc1OC (centres unmarked) [Compound 36, N-(1-benzyl-piperidin-3-ylmethyl)-2-[5-(3,4-dimethoxy-phenyl)-pyrimidin-2-ylsulfanyl]-acetamide] | 1060 nM | –
4 | COc1ccc(-c2cnc(SCC(=O)NCC3CCCN(Cc4ccc(F)c(F)c4)C3)nc2)cc1 (centres unmarked) [Compound 39, N-[1-(3,4-difluoro-benzyl)-piperidin-3-ylmethyl]-2-[5-(4-methoxy-phenyl)-pyrimidin-2-ylsulfanyl]-acetamide] | 1370 nM | –
5 | COc1ccc(-c2cnc(CCC(=O)NCC3CCCN(Cc4ccc(Br)c(Br)c4)C3)nc2)cc1OC (centres unmarked) [Compound 8, N-[1-(3,4-dibromo-benzyl)-piperidin-3-ylmethyl]-3-[5-(3,4-dimethoxy-phenyl)-pyrimidin-2-yl]-propionamide] | 107 nM | –
6 | COc1ccc(-c2cnc(CCC(=O)NCC3CCCN(Cc4ccc(Cl)c(Cl)c4)C3)nc2)cc1OC (centres unmarked) [Compound 9, N-[1-(3,4-dichloro-benzyl)-piperidin-3-ylmethyl]-3-[5-(3,4-dimethoxy-phenyl)-pyrimidin-2-yl]-propionamide] | 152 nM | –
7 | COc1ccc(-c2cnc(SCC(=O)NCC3CCCN(Cc4ccc(Cl)c(F)c4)C3)nc2)cc1OC (centres unmarked) [Compound 33, N-[1-(4-chloro-3-fluoro-benzyl)-piperidin-3-ylmethyl]-2-[5-(3,4-dimethoxy-phenyl)-pyrimidin-2-ylsulfanyl]-acetamide] | 973 nM | –
8 | COc1cc(-c2cnc(CCC(=O)NCC3CCCN(Cc4cccc(Cl)c4Cl)C3)nc2)cc(OC)c1OC (centres unmarked) [Compound 57, N-[1-(2,3-dichloro-benzyl)-piperidin-3-ylmethyl]-3-[5-(3,4,5-trimethoxy-phenyl)-pyrimidin-2-yl]-propionamide] | 12000 nM | –
9 | COc1ccc(-c2cnc(SCC(=O)NCC3CCCN(Cc4ccc5c(c4)OCO5)C3)nc2)cc1OC (centres unmarked) [Compound 13, N-(1-benzo[1,3]-dioxol-5-ylmethyl-piperidin-3-ylmethyl]-2-[5-(3,4-dimethoxy-phenyl)-pyrimidin-2-ylsulfanyl]-acetamide] | 205 nM | –
10 | COc1cc(-c2cnc(OCC(=O)NCC3CCCN(Cc4ccc(Cl)c(Cl)c4)C3)nc2)cc(OC)c1OC (centres unmarked) [Compound 58, N-[1-(3,4-dichloro-benzyl)-piperidin-3-ylmethyl]-2-[5-(3,4,5-trimethoxy-phenyl)-pyrimidin-2-yloxy]-acetamide] | 21000 nM | –
11 | O=C(CSc1ncc(-c2ccccc2)cn1)NCC1CCCN(Cc2ccc(Cl)c(C(F)(F)F)c2)C1 (centres unmarked) [Compound 48, N-[1-(4-chloro-3-trifluoromethyl-benzyl)-piperidin-3-ylmethyl]-2-(5-phenyl-pyrimidin-2-yl-sulfanyl)-acetamide] | 2410 nM | –
12 | COc1ccc(-c2cnc(OCC(=O)NCC3CCCN(Cc4ccc5c(c4)OCO5)C3)nc2)cc1OC (centres unmarked) [Compound 51, N-(1-benzo[1,3]-dioxol-5-ylmethyl-piperidin-3-ylmethyl)-2-[5-(3,4-dimethoxy-phenyl)-pyrimidin-2-yloxy]-acetamide] | 4640 nM | –
13 | COc1cccc(-c2cnc(OCC(=O)NCC3CCCN(Cc4cccc(Cl)c4Cl)C3)nc2)c1 (centres unmarked) [Compound 52, N-[1-(2,3-dichloro-benzyl)-piperidin-3-ylmethyl]-2-[5-(3-methoxy-phenyl)-pyrimidin-2-yloxy]-acetamide] | 5740 nM | –
14 | COc1cccc(-c2cnc(OCC(=O)NCC3CCCN(Cc4ccc5c(c4)OCO5)C3)nc2)c1 (centres unmarked) [Compound 62, N-(1-benzo[1,3]-dioxol-5-ylmethyl-piperidin-3-ylmethyl)-2-[5-(3-methoxy-phenyl)-pyrimidin-2-yloxy]-acetamide] | 128000 nM | –
15 | COc1ccc(-c2cnc(CCC(=O)NCC3CCCN(Cc4ccc(Cl)c(Cl)c4)C3)nc2)cc1OC (centres unmarked) [Compound 10, N-[1-(3,4-dichloro-benzyl)-piperidin-3-ylmethyl]-3-[5-(3,4-dimethoxy-phenyl)-pyrimidin-2-yl]-propionamide] | 164 nM | –
16 | COc1ccc(-c2cnc(SCC(=O)NCC3CCCN(Cc4cc(Br)c(Br)s4)C3)nc2)cc1OC (centres unmarked) [Compound 63, N-[1-(4,5-dibromo-thiophen-2-ylmethyl)-piperidin-3-ylmethyl]-2-[5-(3,4-dimethoxy-phenyl)-pyrimidin-2-ylsulfanyl]-acetamide] | 66 nM | –
17 | COc1ccc(-c2cnc(SCC(=O)NCC3CCCN(Cc4ccc(Cl)c(Cl)c4)C3)nc2)cc1OC (centres unmarked) [Compound 2, N-[1-(3,4-dichloro-benzyl)-piperidin-3-ylmethyl]-2-[5-(3,4-dimethoxy-phenyl)-pyrimidin-2-ylsulfanyl]-acetamide] | 29 nM | –
18 | COc1ccc(-c2cnc(SCC(=O)NCC3CCCN(Cc4ccc5c(c4)CCC5)C3)nc2)cc1OC (centres unmarked) [Compound 16, 2-[5-(3,4-dimethoxy-phenyl)-pyrimidin-2-ylsulfanyl]-N-(1-indan-5-ylmethyl-piperidin-3-ylmethyl)-acetamide] | 276 nM | –
19 | COc1ccc(-c2cnc(SCC(=O)NCC3CCCN(Cc4ccc5cc[nH]c5c4)C3)nc2)cc1 (centres unmarked) [Compound 30] | 731 nM | –

Other lines, results leading:

Row | IC50 [1] | IC50 (stated in text for the compound where Z is —C(═O)—, assay not given, read-out: IC50) | Compound
20 | – | 1920 nM | COc1ccc(-c2cnc(SCC(=O)NCC3CCCN(C(=O)CCc4ccc(Cl)cc4)C3)nc2)cc1OC (racemic) [Compound 70, (±)-N-{1-[3-(4-Chlorophenyl)-propionyl]-piperidin-3-ylmethyl}-2-[5-(3,4-dimethoxy-phenyl)-pyrimidin-2-ylsulfanyl]-acetamide]
21 | 2080 nM | – | COc1ccc(-c2cnc(CCC(=O)NCC3CCCN(Cc4ccc5c(c4)OCO5)C3)nc2)cc1 (centres unmarked) [Compound 44, N-(1-benzo[1,3]-dioxol-5-ylmethyl-piperidin-3-ylmethyl)-3-[5-(4-methoxy-phenyl)-pyrimidin-2-yl]-propionamide]
22 | 81 nM | – | COc1ccc(-c2cnc(SCC(=O)NCC3CCCN(Cc4cc(Cl)c(Cl)s4)C3)nc2)cc1OC (centres unmarked) [Compound 64, N-[1-(4,5-dichloro-thiophen-2-ylmethyl)-piperidin-3-ylmethyl]-2-[5-(3,4-dimethoxy-phenyl)-pyrimidin-2-ylsulfanyl]-acetamide]
23 | 2810 nM | – | O=C(CSc1ncc(-c2ccccc2)cn1)NCC1CCCN(Cc2ccc(F)c(F)c2)C1 (centres unmarked) [Compound 49, N-[1-(3,4-difluoro-benzyl)-piperidin-3-ylmethyl]-2-(5-phenyl-pyrimidin-2-ylsulfanyl)-acetamide]
24 | 263 nM | – | COc1ccc(-c2cnc(SCC(=O)NCC3CCCN(Cc4ccc5ccccc5c4)C3)nc2)cc1OC (centres unmarked) [Compound 15, 2-[5-(3,4-dimethoxy-phenyl)-pyrimidin-2-ylsulfanyl]-N-(1-naphthalen-2-yl-methyl-piperidin-3-ylmethyl)-acetamide]
25 | 507 nM | – | COc1ccc(-c2cnc(OCC(=O)NCC3CCCN(Cc4cccc(Cl)c4Cl)C3)nc2)cc1OC (centres unmarked) [Compound 26, N-[1-(2,3-dichloro-benzyl)-piperidin-3-ylmethyl]-2-[5-(3,4-dimethoxy-phenyl)-pyrimidin-2-yloxy]-acetamide]
26 | 1350 nM | – | O=C(CSc1ncc(-c2ccccc2)cn1)NCC1CCCN(Cc2ccc(O)c(O)c2)C1 (centres unmarked) [Compound 38, N-[1-(3,4-dihydroxy-benzyl)-piperidin-3-ylmethyl]-2-(5-phenyl-pyrimidin-2-ylsulfanyl)-acetamide]
27 | 1390 nM | – | COc1ccc(-c2cnc(SCC(=O)NCC3CCCN(Cc4ccc5c(c4)CCC5)C3)nc2)cc1 (centres unmarked) [Compound 40]
28 | 25 nM | – | COc1ccc(-c2cnc(SCC(=O)NCC3CCCN(Cc4ccc5cc[nH]c5c4)C3)nc2)cc1OC (centres unmarked) [Compound 1]
29 | 1560 nM | – | O=C(CSc1ncc(-c2ccccc2)cn1)NCC1CCCN(Cc2ccc(Cl)c(Cl)c2)C1 (centres unmarked) [Compound 42, N-[1-(3,4-dichloro-benzyl)-piperidin-3-ylmethyl]-2-(5-phenyl-pyrimidin-2-ylsulfanyl)-acetamide]
